28 compounds from US20250320189A1, “NEW DERIVATIVES FOR TREATING TRPM3 MEDIATED DISORDERS” (Katholieke Universiteit Leuven, priority 2022, published 2025) can be followed below.

The target of the assay is T1, mouse TRPM3α2 (mTRPM3) ion channel (Mus musculus, UniProt J9SQF3).
T1 construct: expressed in transfected cells; host or cells: flip-in (Flp-In) HEK293
In words: Monitoring the TRPM3 ion channel driven Ca2+ uptake (Fluo-4 AM assay). In kind it is cell-based. Conditions: mTRPM3alpha2 overexpressing flip-in HEK293 cells, stimulated with Pregnenolone sulfate (PS) 50 μM. The method, then:
In order to monitor the inhibition of the mouse TRPM3α2 (mTRPM3) ion channel by the compounds of the invention, a cellular system making use of an mTRPM3alpha2 or hTRPM3 overexpressing cell line (flip-in HEK293) was used. The TRPM3 channel was stimulated/opened with Pregnenolone sulfate (PS) (50 μM) which results in Ca^2+ influx.
For mTRPM3, the intracellular Ca^2+ was measured with a Calcium responsive dye, Fluor-4 AMV ester (Invitrogen). Cells were cultured until a confluence of 80-90%, washed with Versene (Invitrogen) and detached from the surface by a short incubation with 0.05% Trypsin (Invitrogen). The trypsination process was stopped by the addition of complete cell culture medium (DMEM, glutamax, 10% FCS, NEAA,Pen-Strep). Cells were collected and resuspended in Krebs buffer without Calcium at RT.
Prior the cell seeding (±2000 cells/well into a black, 384 well plate (Greiner)) the diluted compound was added in the assay plate, together with the PS dissolved in Krebs buffer containing Calcium. […] Directly after cell addition the plates were read on an Envision fluorescence reader (PerkinElmer) by an Excitation of 485 nm and emission at 535 nm.
Channel inhibition was calculated compared to a non-PS stimulated control versus a condition stimulated with PS (50 μM) with vehicle. The ability of the compounds of the invention to inhibit this activity was determined as: Percentage inhibition=[1−((RFU determined for sample with test compound present−RFU determined for sample with positive control inhibitor) divided by (RFU determined in the presence of vehicle−RFU determined for sample with positive control inhibitor))]*100.
The activities of the Example compounds tested are depicted in the table below. The activity ranges A, B and C refer to IC50 values in the Fluo-4 AM assay as follows: “A”: IC50<1 μM; “B”: 1 μM≤IC50≤20 μM and “C”: IC50>20 μM

SMILES strings stand for the structures.

T1 sequence (J9SQF3 1-1709 isoform J9SQF3-12): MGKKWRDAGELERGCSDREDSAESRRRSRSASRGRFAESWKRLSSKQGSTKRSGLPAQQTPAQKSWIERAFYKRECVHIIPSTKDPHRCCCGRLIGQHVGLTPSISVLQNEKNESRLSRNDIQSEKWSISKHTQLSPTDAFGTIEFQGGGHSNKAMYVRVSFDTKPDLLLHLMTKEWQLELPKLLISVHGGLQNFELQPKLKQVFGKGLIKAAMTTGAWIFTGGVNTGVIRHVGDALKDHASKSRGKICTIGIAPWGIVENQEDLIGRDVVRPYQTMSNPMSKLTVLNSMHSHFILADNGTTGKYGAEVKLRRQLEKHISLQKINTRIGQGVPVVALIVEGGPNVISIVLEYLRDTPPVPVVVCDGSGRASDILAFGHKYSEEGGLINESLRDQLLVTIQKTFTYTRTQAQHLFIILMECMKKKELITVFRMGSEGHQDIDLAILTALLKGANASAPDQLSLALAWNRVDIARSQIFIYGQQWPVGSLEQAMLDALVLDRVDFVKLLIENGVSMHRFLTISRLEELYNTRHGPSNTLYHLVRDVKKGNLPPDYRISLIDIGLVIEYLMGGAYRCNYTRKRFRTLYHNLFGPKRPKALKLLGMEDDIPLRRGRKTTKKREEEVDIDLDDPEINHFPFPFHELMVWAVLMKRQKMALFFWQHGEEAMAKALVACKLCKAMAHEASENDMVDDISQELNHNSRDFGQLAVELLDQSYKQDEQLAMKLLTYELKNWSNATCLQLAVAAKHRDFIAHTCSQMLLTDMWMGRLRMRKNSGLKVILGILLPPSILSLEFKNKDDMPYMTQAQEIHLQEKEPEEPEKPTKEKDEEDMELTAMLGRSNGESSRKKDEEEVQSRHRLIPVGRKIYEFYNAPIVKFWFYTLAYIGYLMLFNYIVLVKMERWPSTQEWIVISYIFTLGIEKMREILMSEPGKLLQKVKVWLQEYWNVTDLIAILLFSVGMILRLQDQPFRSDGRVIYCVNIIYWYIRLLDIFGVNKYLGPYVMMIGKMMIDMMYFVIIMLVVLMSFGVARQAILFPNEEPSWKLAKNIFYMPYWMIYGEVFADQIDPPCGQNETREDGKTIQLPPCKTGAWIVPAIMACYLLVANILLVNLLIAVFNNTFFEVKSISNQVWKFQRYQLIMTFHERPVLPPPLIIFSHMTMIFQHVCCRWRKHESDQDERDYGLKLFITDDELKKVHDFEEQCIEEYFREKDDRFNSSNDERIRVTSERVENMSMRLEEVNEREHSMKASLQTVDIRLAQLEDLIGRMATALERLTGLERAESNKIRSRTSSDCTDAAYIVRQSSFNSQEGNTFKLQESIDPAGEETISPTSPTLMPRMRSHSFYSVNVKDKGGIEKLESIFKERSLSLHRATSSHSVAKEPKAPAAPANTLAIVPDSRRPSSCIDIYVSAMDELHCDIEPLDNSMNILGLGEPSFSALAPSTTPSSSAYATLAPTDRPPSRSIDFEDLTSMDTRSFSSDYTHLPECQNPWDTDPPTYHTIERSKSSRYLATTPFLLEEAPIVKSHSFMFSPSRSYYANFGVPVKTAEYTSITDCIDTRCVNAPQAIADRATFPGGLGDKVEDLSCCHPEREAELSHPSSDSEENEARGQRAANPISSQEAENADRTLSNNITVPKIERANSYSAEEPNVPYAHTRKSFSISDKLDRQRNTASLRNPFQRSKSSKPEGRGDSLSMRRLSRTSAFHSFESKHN

Usually IC50 stands for the concentration needed to halve the response being measured. A high value points to weaker potency in that assay. The compound `Cc1oc2ccc(OCC(C)(C)C)cc2c1C(=O)NC1CCNCC1(F)F` (single isomer, unassigned) [Cpd 043-En2, N-(3,3-difluoropiperidin-4-yl)-5-(2,2-dimethylpropoxy)-2-methyl-1-benzofuran-3-carboxamide] had an IC50 of 1000 to 20000 nM.

`Cc1oc2ccc(OCC(F)F)cc2c1C(=O)NC(C)(CO)C(N)=O` (single isomer, unassigned) [Cpd 041 - En2, 2-{[5-(2,2-difluoroethoxy)-2-methyl-1-benzofuran-3-yl]formamido}-3-hydroxy-2-methylpropanamide] registered an IC50 of 1000 to 20000 nM.

Take `Cc1oc2ccc(OCC3CCC3)cc2c1C(=O)NC(C)(C)C(N)=O` [Cpd 015, 2-{[5-(cyclobutylmethoxy)-2-methyl-1-benzofuran-3-yl]formamido}-2-methylpropanamide]: the IC50 is below 1000 nM.

In turn, `Cc1oc2cc(F)c(OCC3CC3)cc2c1C(=O)NC(C)(CO)C(N)=O` (single isomer, unassigned) [Cpd 045 - En2, 2-{[5-(cyclopropylmethoxy)-6-fluoro-2-methyl-1-benzofuran-3-yl]formamido}-3-hydroxy-2-methylpropanamide] had an IC50 below 1000 nM.

As to `Cc1oc2ccc(OCCC3CC3)cc2c1C(=O)N[C@H](C(N)=O)[C@@H](C)O` [Cpd 012, (2S,3R)-2-{[5-(2-cyclopropylethoxy)-2-methyl-1-benzofuran-3-yl]formamido}-3-hydroxybutanamide], the IC50 is below 1000 nM.

The compound `Cc1oc2ccc(OCC3CC3)cc2c1C(=O)NC1(CO)COC1` [Cpd 029, 5-(cyclopropylmethoxy)-N-[3-(hydroxymethyl)oxetan-3-yl]-2-methyl-1-benzofuran-3-carboxamide] returned an IC50 below 1000 nM.

With `Cc1oc2ccc(OCC3(C(F)(F)F)CC3)cc2c1C(=O)NC(C)(CO)C(N)=O` (single isomer, unassigned) [Cpd 048 - En2, 3-hydroxy-2-methyl-2-[(2-methyl-5-{[1-(trifluoromethyl)cyclopropyl]methoxy}-1-benzofuran-3-yl)formamido]propanamide], the IC50 is below 1000 nM.

As for `Cc1oc2ccc(OCC3CC3)cc2c1C(=O)NC(C)(C)C(N)=O` [Cpd 016, 2-{[5-(cyclopropylmethoxy)-2-methyl-1-benzofuran-3-yl]formamido}-2-methylpropanamide], the IC50 was below 1000 nM.

Consider `Cc1oc2ccc(OCC3CC3)cc2c1C(=O)NC1(CO)CCC1` [Cpd 025, 5-(cyclopropylmethoxy)-N-[1-(hydroxymethyl)cyclobutyl]-2-methyl-1-benzofuran-3-carboxamide], for which the IC50 was below 1000 nM.

`Cc1oc2ccc(OCC3CC3(F)F)cc2c1C(=O)NC(CO)CC(F)(F)F` (single isomer, unassigned) [Cpd 057 - En4, 5-[(2,2-difluorocyclopropyl)methoxy]-2-methyl-N-(4,4,4-trifluoro-1-hydroxybutan-2-yl)-1-benzofuran-3-carboxamide] showed an IC50 of 1000 to 20000 nM.

`Cc1oc2ccc(OCC3(C(F)F)CC3)cc2c1C(=O)NC(C)(CO)C(N)=O` (single isomer, unassigned) [Cpd 014 - En1, 2-[(5-{[1-(difluoromethyl)cyclopropyl]methoxy}-2-methyl-1-benzofuran-3-yl)formamido]-3-hydroxy-2-methylpropanamide] registered a half-maximal inhibitory concentration (IC50) below 1000 nM.

In turn, `Cc1oc2ccc(OCC3CC3)cc2c1C(=O)NC1CCNCC1(F)F` (single isomer, unassigned) [Cpd 024-En1, 5-(cyclopropylmethoxy)-N-(3,3-difluoropiperidin-4-yl)-2-methyl-1-benzofuran-3-carboxamide] showed an IC50 of 1000 to 20000 nM.

`Cc1oc2ccc(OCC3CCCC3)cc2c1C(=O)NC(C)(CO)C(N)=O` (single isomer, unassigned) [Cpd 062 - En2, 2-{[5-(cyclopentylmethoxy)-2-methyl-1-benzofuran-3-yl]formamido}-3-hydroxy-2-methylpropanamide] yielded an IC50 below 1000 nM.

Compound `Cc1oc2ccc(OC[C@@H]3C[C@@H]4C[C@@H]4C3)cc2c1C(=O)NC(C)(CO)C(N)=O` (single isomer, unassigned) [Cpd 050 - En1, Cis-2-{[5-({bicyclo[3.1.0]hexan-3-yl}methoxy)-2-methyl-1-benzofuran-3-yl]formamido}-3-hydroxy-2-methylpropanamide] registered an IC50 of 1000 to 20000 nM.

In turn, `Cc1oc2ccc(OC[C@H]3C[C@H](C)C3)cc2c1C(=O)NC(C)(CO)C(N)=O` (single isomer, unassigned) [Cpd 059 - En2, Trans-3-hydroxy-2-methyl-2-({2-methyl-5-[(3-methylcyclobutyl)methoxy]-1-benzofuran-3-yl}formamido)propenamide] gave an IC50 of 1000 to 20000 nM.

Take `Cc1oc2ccc(OCC3(C(F)F)CC3)cc2c1C(=O)N[C@@H](CO)C(N)=O` [Cpd 003, (2S)-2-[(5-{[1-(difluoromethyl)cyclopropyl]methoxy}-2-methyl-1-benzofuran-3-yl)formamido]-3-hydroxypropanamide]: the IC50 was below 1000 nM.

In turn, `Cc1oc2ccc(OCC3CC3(C)C)cc2c1C(=O)NC1CCNCC1(F)F` (single isomer, unassigned) [Cpd 033-En1, N-(3,3-difluoropiperidin-4-yl)-5-[(2,2-dimethylcyclopropyl)methoxy]-2-methyl-1-benzofuran-3-carboxamide] came in with an IC50 of 1000 to 20000 nM.

Compound `Cc1oc2ccc(OCC(F)F)cc2c1C(=O)N[C@@H](CO)C(N)=O` [Cpd 038, (2S)-2-{[5-(2,2-difluoroethoxy)-2-methyl-1-benzofuran-3-yl]formamido}-3-hydroxypropanamide] showed an IC50 below 1000 nM.

In the case of `Cc1oc2ccc(OCC3CC3(F)F)cc2c1C(=O)NC(CO)CC(F)(F)F` (single isomer, unassigned) [Cpd 057 - En2, 5-[(2,2-difluorocyclopropyl)methoxy]-2-methyl-N-(4,4,4-trifluoro-1-hydroxybutan-2-yl)-1-benzofuran-3-carboxamide], the IC50 was below 1000 nM.

Regarding `Cc1oc2ccc(OCC3CC3(F)F)cc2c1C(=O)N[C@@H](CO)C(N)=O` (single isomer, unassigned) [Cpd 002 - En2], the IC50 is below 1000 nM.

For `Cc1oc2ccc(OCC(C)(C)C)cc2c1C(=O)NC1CCNCC1(F)F` (single isomer, unassigned) [Cpd 043-En1, N-(3,3-difluoropiperidin-4-yl)-5-(2,2-dimethylpropoxy)-2-methyl-1-benzofuran-3-carboxamide], the IC50 was in the range of 1000 to 20000 nM.

`COCC(C)(CO)NC(=O)c1c(C)oc2ccc(OCC3(C(F)(F)F)CC3)cc12` (single isomer, unassigned) [Cpd 060 - En1, N-(1-hydroxy-3-methoxy-2-methylpropan-2-yl)-2-methyl-5-{[1-(trifluoromethyl)cyclopropyl]methoxy}-1-benzofuran-3-carboxamide]: the IC50 fell in the range of 1000 to 20000 nM.

For the compound `Cc1oc2ccc(OCC3CC(F)(F)C3)cc2c1C(=O)NC(C)(CO)C(N)=O` (single isomer, unassigned) [Cpd 054 - En2, 2-({5-[(3,3-difluorocyclobutyl)methoxy]-2-methyl-1-benzofuran-3-yl}formamido)-3-hydroxy-2-methylpropanamide], the IC50 is below 1000 nM.

`Cc1oc2ccc(OCC3CC3(C)C)cc2c1C(=O)NC1CCNCC1(F)F` (single isomer, unassigned) [Cpd 033-En3, N-(3,3-difluoropiperidin-4-yl)-5-[(2,2-dimethylcyclopropyl)methoxy]-2-methyl-1-benzofuran-3-carboxamide]: the IC50 was below 1000 nM.

As for `Cc1oc2ccc(OC[C@H]3C[C@@H]4C[C@@H]4C3)cc2c1C(=O)NC(C)(CO)C(N)=O` (single isomer, unassigned) [Cpd 051 - En1, Trans-2-{[5-({bicyclo[3.1.0]hexan-3-yl}methoxy)-2-methyl-1-benzofuran-3-yl]formamido}-3-hydroxy-2-methylpropanamide], the IC50 is below 1000 nM.

The compound `Cc1oc2ccc(OCC3CC3)cc2c1C(=O)NC1(C(N)=O)CCOCC1` [Cpd 037, N-(4-carbamoyloxan-4-yl)-5-(cyclopropylmethoxy)-2-methyl-1-benzofuran-3-carboxamide] showed an IC50 below 1000 nM.

In turn, `Cc1oc2ccc(OCC34CC(C)(C3)C4)cc2c1C(=O)NC(C)(CO)C(N)=O` (single isomer, unassigned) [Cpd 052 - En1, 3-hydroxy-2-methyl-2-{[2-methyl-5-({3-methylbicyclo[1.1.1]pentan-1-yl}methoxy)-1-benzofuran-3-yl]formamido}propenamide] came in with an IC50 below 1000 nM.

In the case of `Cc1oc2ccc(OCC3CC3(C)C)cc2c1C(=O)NC1CCNCC1(F)F` (single isomer, unassigned) [Cpd 033-En4, N-(3,3-difluoropiperidin-4-yl)-5-[(2,2-dimethylcyclopropyl)methoxy]-2-methyl-1-benzofuran-3-carboxamide], the IC50 lay in the range of 1000 to 20000 nM.
